From patent publication US20180296537A1, “METHODS AND COMPOSITIONS FOR DIAGNOSING, TREATING, AND MONITORING TREATMENT OF SHANK3 DEFICIENCY ASSOCIATED DISORDERS” (Novartis AG, priority 2015, published 2018)

Experiments:
PMDS iPS-derived neurons = assay: sEPSC recordings from iPS-derived PMDS neurons; type: cell-based, human
Description: Primary human dermal fibroblasts from neonatal (Invitrogen, Carlsbad, Calif.) and adults (University of Milano, Dr. Sala) were taken for reprogramming using the CytoTune-iPS reprogramming kit (Life Technologies, Carlsbad, Calif.) according to the standard protocol. Colonies with hallmark of pluripotent morphology were readily visible between days 17 and 20 after transduction. These were picked and subcloned multiple times on plates coated with Matrigel (BD Biosciences, San Jose, Calif.) in mTeSR medium until Sendai virus RNA could no longer be detected and the morphology looked stable. […] Karyotype analyses was performed by full-genome SNP analyses by Life&Brain Gmbh (Bonn). […] Neuronal precursors were differentiated from iPS cells by using a modified dual SMAD inhibition as described earlier (Chambers et al., 2009; Pecho-Vrieseling et al., 2014). Briefly, […] undifferentiated hiPSC were seeded in an ULA 96-well in 0.1 ml neural induction medium (20% knockout-serum replacement (Invitrogen), 0.1 mM MEM non-essential amino acids (Invitrogen), 0.1 mM 2-mercaptoethanol (Invitrogen), 75% […] (Invitrogen Gibco); Pen/Strep, 10 ng ml bhFGF (1:1,000, Invitrogen), 10 μM SB 431542 (1:1,000) (Tocris, Bristol, UK) and 1 μM LDN 193189 (1:10,000) (Stemgent) with 10 μM Rock inhibitor to prevent apoptosis (Calbiochem, Darmstadt, Germany). Two days later 0.1 ml of fresh induction media was added to the old one. The next day 30 embryoid bodies (EB) were transferred to a 35 mm matrigel dish with induction media. At day 10 EB's were cleaned to have only neuronal rosettes left. […]
(§1) Whole cell patch-clamp recordings were excluded if the access resistance exceeded 13 MΩ and changed more than 20% during the recordings. Data were recorded with a MultiClamp 700B (Molecular Devices) amplifier, filtered at 0.2 kHz, and digitised at 10 kHz. Data were acquired and analysed with Clampex 10.0, Clampfit 10.0 (Molecular Devices) and the Mini Analysis Program (Synaptosoft, Decatur, Ga.). […]

CA1 neurons = assay: mEPSC recordings from shRNA-expressing CA1 neurons in hippocampal organotypic slice cultures; type: cell-based, mouse; details: Shank3 knock down neurons; overnight 4 μg/ml SC79
Experimental: Organotypice slices and cell cultures were transferred from growth medium to an interface chamber containing ACSF equilibrated with 95% O2/5% CO2 containing the following (in mM): 124 NaCl, 2.7 KCl, 2 CaCl2, 1.3 MgCl2, 26 NaHCO3, 0.4 NaH2PO4, 18 glucose, 4 ascorbate. Recordings were performed with ACSF in a recording chamber at a temperature of 35° C. at a perfusion rate of 1-2 ml/min. Neurons were visually identified with infrared video microscopy using an upright microscope equipped with a 40× objective (Olympus, Tokyo, Japan). Patch electrodes (3-5 MΩ) were pulled from borosilicate glass tubing. […]
as §1
Given that SC79 and TG003 were able to recover spine numbers in Shank3 knock down neurons, the reinstatement of synaptic transmission was examined next. First, miniature excitatory postsynaptic currents (mEPSCs) were recorded from shRNA-expressing CA1 neurons in hippocampal organotypic slice cultures. […]

[1] = PMDS neurons, eight weeks in vitro, overnight treatment

SMILES	frequency of spontaneous EPSCs (sEPSCs) (PMDS iPS-derived neurons; [1])	mEPSC frequency (CA1 neurons)	frequency of spontaneous EPSCs (sEPSCs) (PMDS iPS-derived neurons; neurons from second PMDS patient (PMDS-2))
CCN1/C(=C/C(C)=O)Sc2ccc(OC)cc21 [TG003, (Z)-1-(3-ethyl-5-methoxy-2,3-dihydrobenzothiazol-2-ylidene)propan-2-one]	completely rescued this impairment		
CCOC(=O)C1=C(N)Oc2ccc(Cl)cc2C1C(C#N)C(=O)OCC (stereo not shown) [SC79]	completely rescued this impairment	completely restored mEPSC frequency to control levels	restorative effect of SC79 was also observed
